Measured values taken from US6369260B1, “Process for the preparation of a pharmacologically active chemical combination” (Laboratori Alchemica S.r.l., priority 1994, dated 2002).
Read-outs that look alike come from different tables or passages of the source.

Key:
[1] = gastrointestinal tolerability following intraperitoneal administration; type: in vivo
Excerpt: In addition, the gastrointestinal tolerability was examined in (CCCCV), as compared to the native agent.

[2] = rat, in vivo, po
[3] = plasmatic concentration after oral administration in the rats; conditions: for native products found in plasma: since the first hours of administration; for time of plasmatic elimination half-life versus native compounds: sometimes even by 300% higher
[4] = tested on: Mycobacterium butyricum induced paw volume increase; assay: anti-arthritic activity, standard adjuvant arthritis method; type: in vivo; conditions: intraperitoneal, rat
Protocol: The anti-arthritic activity of (CCCCV) was determined in the rat, according to the standard adjuvant arthritis method, consisting in the injection of a suspension killed Mycobacterium butyricum in mineral oil in the right hind paw under light ether anesthesia. The volume of the left hindpaw was measured by plethysmography.

[5] = tested on: rat; type: in vivo
Protocol: The gastrointestinal tolerability was evaluated by oral administration in the rat.

[6] = tested on: collagen-stimulated platelets; assay: platelet anti-aggregating activity in vivo; conditions: power ratio related to the basic product taken as unit standard; oral administration
Protocol: The platelet anti-aggregating activity was evaluated in vivo on the collagen-stimulated platelets, according to the method described by PINON, J.Pharmacol.Methods 12,79 (1984); the gastrointestinal tolerability was evaluated by oral administration in the rat.
The results are shown in Table 2, which summarizes the study of the antithrombotic properties of said products (III), (XIII) (XVII) and (XVIII) after their oral administration.

[7] = tested on: carrageen edema; assay: anti-inflammatory activity, carrageen edema method; type: in vivo; conditions: power ratio related to the basic product taken as unit standard; oral administration, rat
Protocol: The anti-inflammatory activity was determined according to the method of carrageen edema, as described by WINTER et al. Proc.Soc.Exp.Biol.Med. 111,544 (1962), in the rat.
The results are shown in Table 1, which summarizes the study of the anti-inflammatory properties of the compounds under examination after oral administration.

[8] = Table 2, relative to Aspirin = 1, oral administration
[9] = Table 1, power ratio related to the basic product taken as unit standard, oral administration

With C[C@]12CCC(=O)C=C1CC[C@@H]1[C@@H]2[C@@H](O)C[C@@]2(C)[C@H]1CC[C@]2(O)C(=O)COC(=O)CCCCCCCC(=O)OCC(=O)[C@]1(O)CC[C@@H]2[C@H]3CCC4=CC(=O)CC[C@@]4(C)[C@@H]3[C@H](O)C[C@]21C [(CCCCV), di(21-hydrocortisone)azelate] the “gastrointestinal tolerability compared to the native agent” value [1] was “significantly better tolerated than the parent compound”, the “time of plasmatic elimination half-life versus native compounds” value [2] was “significantly higher” and the “native products found in plasma” value [3] was “significant quantities of the native products were found”. The “anti-arthritic potency relative to parent compound” value [4] was “comparable with the parent compound”, the “duration of pharmacological activity relative to parent compound” value [4] was “greater duration” and the “inhibition of Mycobacterium butyricum induced paw volume increase” value ([4]; suspended in carboxymethylcellulose 0.5-2%) was “effective in inhibiting significantly”.

With CC(=O)Oc1ccccc1C(=O)OCCCCCCOC(=O)c1ccccc1OC(C)=O [(III), 1.6-hexandiol bis-acetylsalicylate] the “GASTROINT. TOLERABIL.” value [5, 8] was 0.1 and the “PLATELET ANTI-AGGREGATING ACTIVITY” value [6] was 0.8.

For CC(C(=O)OCCCCOC(=O)C(C)c1ccc(-c2ccccc2)c(F)c1)c1ccc(-c2ccccc2)c(F)c1 (centres unmarked) [(IX)], the “GASTROINT. TOLERABILITY” value [5, 9] was 0.3, the “native products found in plasma” value [3] was “significant quantities of the native products were found” and the “time of plasmatic elimination half-life versus native compounds” value [3] was “significantly higher”.

With CC(C(=O)OCCCCOC(=O)C(C)c1cccc(C(=O)c2ccccc2)c1)c1cccc(C(=O)c2ccccc2)c1 (centres unmarked) [(VII), 1,4-butandiole bis-2-[(3-benzoyl)phenyl]propionate] the “GASTROINT. TOLERABILITY” value [5, 9] was 0.3 and the “ANTIEDEMIGENIC ACTIVITY” value [7] was 0.9.

For O=C(Cc1ccccc1Nc1c(Cl)cccc1Cl)OCCCCOC(=O)Cc1ccccc1Nc1c(Cl)cccc1Cl [(X)], the “GASTROINT. TOLERABILITY” value [5, 9] was 0.1.

In the case of CS(=O)(=O)N(C(=O)CCC(=O)N(c1ccc([N+](=O)[O-])cc1Oc1ccccc1)S(C)(=O)=O)c1ccc([N+](=O)[O-])cc1Oc1ccccc1 [(XI), bis-(N-[(2-phenoxy-4-nitro)phenyl]-N′-methansulfonyl)succinamide], the “GASTROINT. TOLERABILITY” value [5, 9] is reported as 0.8, the “native products found in plasma” value [3] is reported as “significant quantities of the native products were found” and the “time of plasmatic elimination half-life versus native compounds” value [3] is reported as “significantly higher”.

In the case of CC(=O)Oc1ccccc1C(=O)OCCCCOC(=O)c1ccccc1OC(C)=O [(XIII), 1,4-buthanediol bis-acetylsalycylate], the “GASTROINT. TOLERABIL.” value [5, 8] is reported as 0.1 and the “PLATELET ANTI-AGGREGATING ACTIVITY” value [6] is reported as 0.8.

In the case of CC(=O)Oc1ccccc1C(=O)O [Aspirin, reference compound], the “GASTROINT. TOLERABIL.” value ([5]; in vivo, po) is reported as 1 and the “PLATELET ANTI-AGGREGATING ACTIVITY” value [6] is reported as 1.

For O=C(O)Cc1ccccc1Nc1c(Cl)cccc1Cl [Diclofenac, reference compound], the “GASTROINT. TOLERABILITY” value [5, 9] was 1.

With CC(C(=O)O)c1ccc(-c2ccccc2)c(F)c1 (centres unmarked) [Flurbiprofen, reference compound] the “GASTROINT. TOLERABILITY” value ([5]; in vivo, po) was 1.

With CC(C(=O)O)c1cccc(C(=O)c2ccccc2)c1 (centres unmarked) [Ketoprofen, reference compound] the “GASTROINT. TOLERABILITY” value [5, 9] was 1.

For COc1ccc2cc([C@H](C)C(=O)O)ccc2c1 [Naproxen, reference compound], the “GASTROINT. TOLERABILITY” value ([5]; in vivo, po) was 1.

For CS(=O)(=O)Nc1ccc([N+](=O)[O-])cc1Oc1ccccc1 [Nimesulide, reference compound], the “GASTROINT. TOLERABILITY” value [5, 9] was 1.
